“And” between values parts separate entries of the source, which are not always exact repeats. Equal values may be shown once. “Also recorded” adds a separate entry of the source.
Assays:
YFP-apoE4-CFP cells = assay: MTT cytotoxicity assay; assay type: cell-based, mouse; settings: 5-10 μM
Text: (§1) Since the emission spectrum of CFP (460-520 nm) overlaps with the excitation spectrum of YFP (480-520 nm), FLEXstation (Molecular Devices) can be used to measure FRET in living cells expressing YFP-apoE3-CFP or YFP-apoE4-CFP in a high throughput manner. […] Thus, the ratio of FRET to CFP emission in cells expressing YFP-apoE4-CFP is much higher than that in those expressing YFP-apoE3-CFP (FIG. 31). […] Since the FLEXstation can read FRET in both cells and the culture media treated without or with various small molecules, this assay allows one to know whether a small molecule affects apoE4 domain interaction only in the medium (“medium FRET”) or also inside the cell (“intracellular FRET”). In addition, after measurement of the intracellular FRET, the cells can be incubated further with MTT to determine the cytotoxicity of the compound. Thus, the cell-based FRET assay can simultaneously provide three sets of data-intracellular FRET, medium FRET, and cytotoxicity.

Neuro-2a cells [1] = assay: Aβ-induced lysosomal leakage (cytosolic β-hexosaminidase); assay type: cell-based, mouse
Protocol: The cytosolic fraction was obtained by ultracentrifugation, and the cytosolic β-hexosaminidase activity was measured.
Quantitation of the lysosomal enzyme β-hexosaminidase activity in the cytosol indicates lysosomal leakage. […] After incubation the cells were washed and cytosolic fractions were isolated as described in Materials and Methods. The enzymatic activity of β-hexosaminidase was assayed in 20 μg of cytosolic protein for each sample.
Lysosomal leakage was quantitated by assaying cytosolic 0-hexosaminidase activity. […] Conditioned media were prepared as described above. Apoptosis was quantitated by measuring DNA fragmentation.

YFP-apoE3-CFP = target: T1, YFP-apoE3-CFP (Homo sapiens, UniProt P02649); assay: Cell-based FRET assay, YFP-apoE3-CFP; settings: for ratio of FRET to CFP emission in cells expressing YFP-apoE3-CFP: intracellular; for ratio of FRET to CFP emission in media of YFP-apoE3-CFP cells: medium
T1 construct: vector signal peptide (pFLAG-CMV3) (N); FLAG (N); expressed in transfected cells
T1 sequence (P02649 19-317): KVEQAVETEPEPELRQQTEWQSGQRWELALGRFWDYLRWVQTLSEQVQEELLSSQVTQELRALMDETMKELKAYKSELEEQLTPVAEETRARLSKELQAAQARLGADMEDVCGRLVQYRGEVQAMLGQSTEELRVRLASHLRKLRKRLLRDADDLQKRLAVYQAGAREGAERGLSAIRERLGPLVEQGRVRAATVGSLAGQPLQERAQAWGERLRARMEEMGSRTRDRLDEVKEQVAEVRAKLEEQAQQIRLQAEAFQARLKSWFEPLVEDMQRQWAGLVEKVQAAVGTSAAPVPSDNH
Text: (§2) Xu et al. (2004) J. Biol. Chem. 279:25511-25516. FRET—the non-radioactive transfer of photon energy from an excited fluorophore (donor) to another fluorophore (acceptor)—occurs only when the donor and acceptor are in close proximity (<100 Å). Thus, this approach can be used to measure nanometer scale distances.
(§3) Xu et al. (2004) J. Biol. Chem. 279:25511-25516. The constructs are depicted schematically in FIG. 29.
as §1
(§4) Quantifying FRET in Transfected Neuro-2a Cells—Stably transfected Neuro-2a cells expressing YFP-apoE3-CFP or YFP-apoE4-CFP at similar levels were selected by fluorescence activated cell sorter (FACS). YFP and CFP images of transfected cells were acquired with the Meta Detector, and their fluorescence intensities were analyzed with the mounted computer. The FRET signal was calculated as the ratio of YFP to CFP fluorescence intensity under CFP excitation. For each YFP-apoE-CFP construct, the FRET signal was measured in at least 12 cells from different fields.
(§5) Quantifying FRET in the Culture Medium—Neuro-2a cells stably expressing YFP-apoE3-CFP or YFP-apoE4-CFP and wildtype cells were grown in T175 flasks to 90% confluence and incubated with serum-free minimum essential medium containing N2 supplement for 24 h. The conditioned medium (20 ml/flask) was concentrated about 20-fold with Centriplus-YM-10 concentrators (Amicon, Bedford, Mass.), dialyzed against PBS, illuminated at the CFP excitation wavelength (430 nm), and scanned for emission spectrum. The FRET signal was calculated as the ratio of emission at 525 nm (YFP) to that at 475 nm (CFP). Conditioned medium from cells expressing apoE3-CFP or apoE4-CFP was used to determine baseline fluorescence in the absence of FRET.

YFP-apoE4-CFP = target: T2, YFP-apoE4-CFP (Homo sapiens, UniProt P02649, C130R); assay: Cell-based FRET assay, YFP-apoE4-CFP; settings: 5-20 μM; for ratio of FRET to CFP emission in the cells expressing YFP-apoE4-CFP: intracellular; for ratio of FRET to CFP emission in media of YFP-apoE4-CFP cells: medium
T2 construct: vector signal peptide (pFLAG-CMV3) (N); FLAG (N); expressed in transfected cells
T2 sequence (P02649 19-317 C130R): as the sequence (P02649 19-317) above, with C112R counted along it
Text: as §2, §3, §1, §4, §5

Neuro-2a cells [2] = assay: Aβ-induced apoptosis (DNA fragmentation assay); assay type: cell-based, mouse
Protocol: DNA Fragmentation Assay—DNA fragmentation of apoptotic cells was determined with Cell Death Detection ELISA kits (Roche, Indianapolis, Ind.).
FIG. 38. […] Control cells were not treated with Aβ1-42. Apoptotic cell death was measured with a DNA fragmentation assay. Values are the mean±S.D. of three separate experiments.
FIGS. 39A and 39B. […] Lysosomal leakage was quantitated by assaying cytosolic 0-hexosaminidase activity. […] Conditioned media were prepared as described above. Apoptosis was quantitated by measuring DNA fragmentation.

B103 cells = assay: Toxicity to B103 cells; assay type: cell-based, rat; settings: at the micromole level
apoE4 = target: T3, apoE4 (Homo sapiens, UniProt P02649, C130R); assay: Emulsion binding assay for domain interaction, apoE4
T3 construct: made in house
T3 sequence (P02649 19-317 C130R): as the sequence (P02649 19-317) above, with C112R counted along it
Protocol: (§6) Preparation of emulsion particles. Triolein (160 mg) and L-alpha-Phosphatidylcholine (40 mg) are combined and dried under nitrogen. After the addition of 8 mls of buffer (10 mM Tris, 100 mM KCl, 1 mM EDTA, pH 8.0), the mixture is sonicated in a water bath to obtain a heterogeneous mix of emulsion particles. The particles are harvested by ultracentrifugation (TLA 100.2 rotor, 30,000 rpm for 30 minutes) and the subsequent lipid cake is removed by tube slicing and resuspended in 100 μt 20 mM Phosphate Buffer (PB). Triolein and phospholipid content are measured and total emulsion particle concentration is determined.
(§7) Radiolabelling Freshly denatured and renatured Apolipoprotein E3 and E4 are radiolabelled using Bolton-Hunter Reagent [^125I] (ICN). Specific Activity is determined using Lowry method and Gamma 8000 counter.
(§8) Binding Affinity Assay. […] In glass tubes, 25 μg of protein (with iodinated tracer) was reduced with 1% β-mercaptoethanol. Two hundred and fifty μg of emulsion particles and 2.5 μl of compound (10 mM stock) were added and the final mixture was brought up to 250 μl with 20 mM phosphate buffer (PB). The reaction mixture was then incubated in a 37° C. water bath for 2 hours before being transferred to 1.5 ml ultracentrifuge tubes. Finally, 50 μl of 60% sucrose was mixed with the sample and 400 μl 20 mM PB was carefully layered on top. Using a TLA 100.2 rotor, the tube was spun at 30,000 rpm for 30 minutes and subsequently cut to separate the floating emulsion particle layer from the free protein at the bottom of the tube. These fractions were then combined with the respective half of the actual tube and counted using a Gamma-8000. […] Protein-only assays yielded 94.5-96.6% of protein accumulated in the bottom portion of the tube. In emulsion particle-only assays, 94% of emulsion particles accumulated in the top portion of the tube.
(§9) Preparation of Emulsion Particles and VLDL Binding Affinity Assay. VLDL-like emulsion particles were prepared using triolein (160 mg) and L-alpha-phosphatidylcholine (40 mg), as described. Dong and Weisgraber (1996) supra; and Dong et al. (1994) J. Biol. Chem. 269:22358-22365.

apoE3 [3] = target: T4, apoE3 (Homo sapiens, UniProt P02649); assay: Emulsion binding assay, apoE3; settings: follow-up assay
T4 construct: made in house
T4 sequence (P02649 19-317): as the sequence (P02649 19-317) above
Protocol: as §6, §7, §8, §9

apoE3 [4] = assay: Aβ production assay, B103-APP cells incubated with apoE3; assay type: cell-based, rat; settings: FIG. 22
Protocol: Aβ production assay. Stable neuroblastoma B103 cell lines transfected with a wildtype hAPP cDNA construct (B 103-APP) were selected by growing them in Dulbecco's modified Eagle's medium (DMEM) containing 10% fetal calf serum (FBS) and 400 μg/ml G418. A cell line expressing APP at similar levels in mouse brains has been identified by RNase protection assay (RPA) and was used in the studies described below. To determine Aβ production, B103-APP cells were incubated with serum-free minimal essential medium (MEM) containing N2 supplements with or without apoE isoforms for 24 h at 37° C. After incubation, 50 μl of medium was collected and assayed for Aβ levels with an ELISA method. The cells were lysed, and cellular proteins were determined by the Lowry method. AP production was normalized to cellular protein.
Cell Culture. Rat neuroblastoma B103 cells stably expressing human wildtype APP (hAPP695wt) (Xu et al. ((1999) Proc. Natl. Acad. Sci. USA 96:7547-7552; Esposito, et al. (2004) J. Neurochem. 91:1260-1274) were generated in Dr. Lennart Mucke's laboratory at the Gladstone Institute of Neurological Disease and maintained in Dulbecco's modified Eagle's medium (DMEM) (GIBCO, Grand Island, N.Y.) containing 400 μg/ml G418, 10% fetal bovine serum, and 5% horse serum at 37° C. Twenty-four hours after plating into 48-well plates (1×10^5 cells per well), cells were washed twice with serum-free DMEM and cultured for another 24 h in DMEM containing 1% N-2 supplement (GIBCO) to induce differentiation. The cells were treated with either β-VLDL (25 μg/ml cholesterol), recombinant human apoE isoform-enriched β-VLDL (7.5 μg/ml apoE and 25 μg/ml cholesterol), or recombinant human apoE (7.5 μg/ml apoE) in fresh DMEM containing 1% N-2 supplement for an additional 24 h. In some experiments, RAP (25 nM or 1 μM) was added to the cells 1 h before apoE treatment.
Aβ Assay. Aβ secreted into the medium was detected with a sandwich enzyme-linked immunosorbent assay (ELISA), using mAb 266 as a capturing antibody and 3D6 as a detecting antibody, as described. Johnson-Wood et al. ((1997) Proc. Natl. Acad. Sci. USA 94:1550-1555). Aβ was quantified from a standard curve (Aβ42; Bachem, Torrance, Calif.) and normalized by total cellular protein.

Water solubility = assay type: physicochemical
[5] = follow-up assay, second E4 control
[6] = initial assay, 2.5 μl of compound (10 mM stock) in 250 μl, 37° C. 2 hours, listed as 3-butyl-1-ethyl-5-(2-(3-sulfobutyl-benzo(1,3)oxazo, potassium salt))

For `CCN(CC)c1ccc(/N=N\c2cc(S(=O)(=O)O)cc3cc(S(=O)(=O)O)cc(O)c23)c(O)c1` [GIND-28], the “cytotoxicity (MTT assay)” value (YFP-apoE4-CFP cells) was “did not cause significant cytotoxicity”, the “lysosomal leakage, cells with medium alone or medium containing apoE3 plus Aβ1-42” value (Neuro-2a cells [1]) was “no significant effect” and the “apoE4 potentiation of Aβ-induced lysosomal leakage” value (Neuro-2a cells [1]; 5 μM, apoE4 conditioned medium, Aβ1-42 20 μM) was “block; also recorded: abolish”. The “ratio of FRET to CFP emission in cells expressing YFP-apoE3-CFP” value (YFP-apoE3-CFP) was “none of these compounds altered significantly”, the “ratio of FRET to CFP emission in media of YFP-apoE3-CFP cells” value (YFP-apoE3-CFP) was “none of these compounds altered significantly” and the “ratio of FRET to CFP emission in the cells expressing YFP-apoE4-CFP” value (YFP-apoE4-CFP) was “decreased significantly”. For the same compound, the “ratio of FRET to CFP emission in media of YFP-apoE4-CFP cells” value (YFP-apoE4-CFP) was “decreased significantly”, the “apoptosis, cells with medium alone or medium containing apoE3 plus Aβ1-42” value (Neuro-2a cells [2]) was “no significant effect” and the “apoE4 potentiation of Aβ-induced apoptosis” value (Neuro-2a cells [2]; apoE4 conditioned medium, Aβ1-42) was “block; also recorded: abolish”.
In the case of `CCCCN1C(=O)/C(=C/C=C2/Oc3ccccc3N2CCCCS(=O)(=O)[O-])N(CC)C1=S.[K+]` [GIND-105], the “cytotoxicity (MTT assay)” value (YFP-apoE4-CFP cells) is reported as “did not cause significant cytotoxicity”, the “lysosomal leakage, cells with medium alone or medium containing apoE3 plus Aβ1-42” value (Neuro-2a cells [1]) is reported as “no significant effect” and the “toxicity to B103 cells” value (B103 cells) is reported as “no significant toxicity”. For the same compound, the “E4 + cpd n = 3, % bound” value (apoE4; follow-up assay) was 57%, the “E4 + cpd n = 3, % free” value (apoE4; follow-up assay) was 43% and the “E4 control, % bound” value (apoE4; [5]) was 45%. The “E4 control, % free” value (apoE4; [5]) was 55%, the “E4 + cpd, % bound” value (apoE4; [6]) was 28% and 21% and the “E4 + cpd, % free” value (apoE4; [6]) was 72% and 79%. The “E3 + compound, % bound” value (apoE3 [3]) was 30%, the “E3 + compound, % free” value (apoE3 [3]) was 70% and the “effect on apoE3 (Aβ production)” value (apoE3 [4]) was “no effect”. The water solubility (Water solubility) was “water-soluble” and the “apoptosis, cells with medium alone or medium containing apoE3 plus Aβ1-42” value (Neuro-2a cells [2]) was “no significant effect”.
In the case of `Cc1cc(Cl)cc2sc(-c3sc4cc(Cl)cc(C)c4c3OS(=O)(=O)O)c(OS(=O)(=O)O)c12` [GIND-111], the “cytotoxicity (MTT assay)” value (YFP-apoE4-CFP cells) is reported as “did not cause significant cytotoxicity”, the “ratio of FRET to CFP emission in cells expressing YFP-apoE3-CFP” value (YFP-apoE3-CFP) is reported as “none of these compounds altered significantly” and the “ratio of FRET to CFP emission in media of YFP-apoE3-CFP cells” value (YFP-apoE3-CFP) is reported as “none of these compounds altered significantly”. For the same compound, the “ratio of FRET to CFP emission in the cells expressing YFP-apoE4-CFP” value (YFP-apoE4-CFP) was “decreased significantly” and the “ratio of FRET to CFP emission in media of YFP-apoE4-CFP cells” value (YFP-apoE4-CFP) was “decreased significantly”.

Reference: patent US7964598B2 (The J. David Gladstone Institutes, priority 1995, dated 2011)
